In the supplement of paper PMC8967900:

Columns and labels:
Assay in all cases: selective drug sensitivity score (sDSS, relative to normal bone marrow) (sDSS (score)); higher = more potent and effective on the cell line relative to normal bone marrow cells
Details in all cases: 72 h
KASUMI-10 = test system: KASUMI-10
REH = test system: REH
TANOUE = test system: TANOUE
RPMI-8402 = test system: RPMI-8402
P12-ICHIKAWA = test system: P12-ICHIKAWA
MOLT-14 = test system: MOLT-14
KASUMI-2 = test system: KASUMI-2
SUP-B15 = test system: SUP-B15
KASUMI-9 = test system: KASUMI-9
KOPN-8 = test system: KOPN-8
CCRF-HSB2 = test system: CCRF-HSB2
RCH-ACV = test system: RCH-ACV
HPB-ALL = test system: HPB-ALL
KARPAS-45 = test system: KARPAS-45
MOLT-4 = test system: MOLT-4
TMD5 = test system: TMD5
COG-LL-317 = test system: COG-LL-317
COG-LL-402h = test system: COG-LL-402h
DND-41 = test system: DND-41
HAL-01 = test system: HAL-01
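Also: ALL cell lines in 384-well plates, five doses spanning 10,000-fold, each plate scaled between vehicle and 100 µmol/L benzalkonium chloride controls, sDSS an adapted area-under-curve metric.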

## CC1(C)CC[C@]2(NC(=O)C(C)(F)F)CC[C@]3(C)[C@H](C(=O)C=C4[C@@]5(C)C=C(C#N)C(=O)C(C)(C)[C@@H]5CC[C@]43C)[C@@H]2C1 [Omaveloxolone] (top concentration 10000 nM)
KASUMI-10
  selective drug sensitivity score: 2.58
REH
  selective drug sensitivity score: 2.58
TANOUE
  selective drug sensitivity score: -0.52
RPMI-8402
  selective drug sensitivity score: 0.88
P12-ICHIKAWA
  selective drug sensitivity score: 1.88
MOLT-14
  selective drug sensitivity score: 1.58
KASUMI-2
  selective drug sensitivity score: 6.38
SUP-B15
  selective drug sensitivity score: 8.38
KASUMI-9
  selective drug sensitivity score: 1.88
KOPN-8
  selective drug sensitivity score: 8.68
CCRF-HSB2
  selective drug sensitivity score: 3.78
RCH-ACV
  selective drug sensitivity score: 6.28
HPB-ALL
  selective drug sensitivity score: 3.58
KARPAS-45
  selective drug sensitivity score: 1.68
MOLT-4
  selective drug sensitivity score: 2.18
TMD5
  selective drug sensitivity score: 1.48
COG-LL-317
  selective drug sensitivity score: 4.88
COG-LL-402h
  selective drug sensitivity score: 3.38
DND-41
  selective drug sensitivity score: 3.98
HAL-01
  selective drug sensitivity score: 3.58

## COc1ccccc1S(=O)(=O)Nc1ccc2c(c1)CN(C)C(=O)N2 [PFI-1] (top concentration 30000 nM)
KASUMI-10
  selective drug sensitivity score: 3.5
REH
  selective drug sensitivity score: -0.6
TANOUE
  selective drug sensitivity score: -3.2
RPMI-8402
  selective drug sensitivity score: 2.5
P12-ICHIKAWA
  selective drug sensitivity score: 0.8
MOLT-14
  selective drug sensitivity score: 4.4
KASUMI-2
  selective drug sensitivity score: 2.4
SUP-B15
  selective drug sensitivity score: 8.5
KASUMI-9
  selective drug sensitivity score: 6
KOPN-8
  selective drug sensitivity score: 17.3
CCRF-HSB2
  selective drug sensitivity score: 1
RCH-ACV
  selective drug sensitivity score: 5.4
HPB-ALL
  selective drug sensitivity score: 1
KARPAS-45
  selective drug sensitivity score: 3.1
MOLT-4
  selective drug sensitivity score: -0.9
TMD5
  selective drug sensitivity score: -4.5
COG-LL-317
  selective drug sensitivity score: 2.5
COG-LL-402h
  selective drug sensitivity score: 3.1
DND-41
  selective drug sensitivity score: 2.3
HAL-01
  selective drug sensitivity score: 0.3

## COCCNCc1ccc(-c2cc3nccc(Oc4ccc(NC(=S)NC(=O)Cc5ccc(F)cc5)cc4F)c3s2)nc1 [Glesatinib] (top concentration 2500 nM)
KASUMI-10
  selective drug sensitivity score: 8.74
REH
  selective drug sensitivity score: 4.44
TANOUE
  selective drug sensitivity score: -1.96
RPMI-8402
  selective drug sensitivity score: 0.54
P12-ICHIKAWA
  selective drug sensitivity score: -1.66
MOLT-14
  selective drug sensitivity score: 0.54
KASUMI-2
  selective drug sensitivity score: 4.74
SUP-B15
  selective drug sensitivity score: 7.24
KASUMI-9
  selective drug sensitivity score: -0.36
KOPN-8
  selective drug sensitivity score: 6.14
CCRF-HSB2
  selective drug sensitivity score: 11.7
RCH-ACV
  selective drug sensitivity score: 3.74
HPB-ALL
  selective drug sensitivity score: -0.26
KARPAS-45
  selective drug sensitivity score: 2.34
MOLT-4
  selective drug sensitivity score: -0.96
TMD5
  selective drug sensitivity score: 2.74
COG-LL-317
  selective drug sensitivity score: 0.64
COG-LL-402h
  selective drug sensitivity score: -1.76
DND-41
  selective drug sensitivity score: 0.44
HAL-01
  selective drug sensitivity score: 2.44

## Cc1cc(-c2nc(-c3ccc(OC(F)(F)F)cc3)no2)nn1Cc1ccnc(N2CCN(C3CC3)CC2)c1 [BAY_87-2243] (top concentration 1000 nM)
KASUMI-10
  selective drug sensitivity score: -6.66
REH
  selective drug sensitivity score: 17.1
TANOUE
  selective drug sensitivity score: 25.2
RPMI-8402
  selective drug sensitivity score: 28
P12-ICHIKAWA
  selective drug sensitivity score: 23.9
MOLT-14
  selective drug sensitivity score: 8.64
KASUMI-2
  selective drug sensitivity score: -8.66
SUP-B15
  selective drug sensitivity score: 14.1
KASUMI-9
  selective drug sensitivity score: 5.24
KOPN-8
  selective drug sensitivity score: 6.34
CCRF-HSB2
  selective drug sensitivity score: 14.9
RCH-ACV
  selective drug sensitivity score: 14.4
HPB-ALL
  selective drug sensitivity score: 8.54
KARPAS-45
  selective drug sensitivity score: 16.5
MOLT-4
  selective drug sensitivity score: 25.1
TMD5
  selective drug sensitivity score: -1.16
COG-LL-317
  selective drug sensitivity score: -0.96
COG-LL-402h
  selective drug sensitivity score: -3.16
DND-41
  selective drug sensitivity score: 6.84
HAL-01
  selective drug sensitivity score: -0.66

## CN1CCc2c(c3ccccc3n2Cc2ccc(C(=O)NO)cc2)C1 [Tubastatin_A] (top concentration 10000 nM)
KASUMI-10
  selective drug sensitivity score: 2.46
REH
  selective drug sensitivity score: 5.86
TANOUE
  selective drug sensitivity score: -0.14
RPMI-8402
  selective drug sensitivity score: 1.86
P12-ICHIKAWA
  selective drug sensitivity score: 0.36
MOLT-14
  selective drug sensitivity score: 1.06
KASUMI-2
  selective drug sensitivity score: 7.06
SUP-B15
  selective drug sensitivity score: 3.46
KASUMI-9
  selective drug sensitivity score: 8.86
KOPN-8
  selective drug sensitivity score: 9.86
CCRF-HSB2
  selective drug sensitivity score: 2.06
RCH-ACV
  selective drug sensitivity score: 8.16
HPB-ALL
  selective drug sensitivity score: 6.76
KARPAS-45
  selective drug sensitivity score: 4.46
MOLT-4
  selective drug sensitivity score: -0.04
TMD5
  selective drug sensitivity score: -0.14
COG-LL-317
  selective drug sensitivity score: 1.96
COG-LL-402h
  selective drug sensitivity score: 7.46
DND-41
  selective drug sensitivity score: 2.66
HAL-01
  selective drug sensitivity score: 1.76

## COc1cccc2c1C(=O)c1c(O)c3c(c(O)c1C2=O)C[C@@](O)(C(=O)CO)C[C@@H]3O[C@H]1C[C@H](N)[C@H](O)[C@H](C)O1 [Doxorubicin] (top concentration 1000 nM)
KASUMI-10
  selective drug sensitivity score: 7.48
REH
  selective drug sensitivity score: 9.28
TANOUE
  selective drug sensitivity score: -7.62
RPMI-8402
  selective drug sensitivity score: 5.58
P12-ICHIKAWA
  selective drug sensitivity score: 5.08
MOLT-14
  selective drug sensitivity score: 13.8
KASUMI-2
  selective drug sensitivity score: 7.68
SUP-B15
  selective drug sensitivity score: 11.4
KASUMI-9
  selective drug sensitivity score: 7.48
KOPN-8
  selective drug sensitivity score: 13.3
CCRF-HSB2
  selective drug sensitivity score: 14.4
RCH-ACV
  selective drug sensitivity score: 10.6
HPB-ALL
  selective drug sensitivity score: -0.42
KARPAS-45
  selective drug sensitivity score: 0.78
MOLT-4
  selective drug sensitivity score: 10.5
TMD5
  selective drug sensitivity score: 3.18
COG-LL-317
  selective drug sensitivity score: 15
COG-LL-402h
  selective drug sensitivity score: 13.1
DND-41
  selective drug sensitivity score: 1.58
HAL-01
  selective drug sensitivity score: 1.38

## C=C(c1ccc(C(=O)O)cc1)c1cc2c(cc1C)C(C)(C)CCC2(C)C [Bexarotene] (top concentration 10000 nM)
KASUMI-10
  selective drug sensitivity score: -1.9
REH
  selective drug sensitivity score: -3.8
TANOUE
  selective drug sensitivity score: -5.3
RPMI-8402
  selective drug sensitivity score: -4
P12-ICHIKAWA
  selective drug sensitivity score: -0.5
MOLT-14
  selective drug sensitivity score: 0.4
KASUMI-2
  selective drug sensitivity score: -5.3
SUP-B15
  selective drug sensitivity score: -4.8
KASUMI-9
  selective drug sensitivity score: -3.4
KOPN-8
  selective drug sensitivity score: 8
CCRF-HSB2
  selective drug sensitivity score: -0.9
RCH-ACV
  selective drug sensitivity score: -5.1
HPB-ALL
  selective drug sensitivity score: -5.1
KARPAS-45
  selective drug sensitivity score: -1.8
MOLT-4
  selective drug sensitivity score: 2.2
TMD5
  selective drug sensitivity score: 0.1
COG-LL-317
  selective drug sensitivity score: -5.1
COG-LL-402h
  selective drug sensitivity score: -5.3
DND-41
  selective drug sensitivity score: -5.3
HAL-01
  selective drug sensitivity score: -0.9

## CCN1C(=O)CNc2ncc(-c3ccc(-c4nc[nH]n4)nc3C)nc21 [CC-115] (top concentration 10000 nM)
KASUMI-10
  selective drug sensitivity score: 0.14
REH
  selective drug sensitivity score: 0.44
TANOUE
  selective drug sensitivity score: -5.46
RPMI-8402
  selective drug sensitivity score: 0.94
P12-ICHIKAWA
  selective drug sensitivity score: 1.04
MOLT-14
  selective drug sensitivity score: 1.24
KASUMI-2
  selective drug sensitivity score: 5.74
SUP-B15
  selective drug sensitivity score: 2.34
KASUMI-9
  selective drug sensitivity score: 4.54
KOPN-8
  selective drug sensitivity score: 17.5
CCRF-HSB2
  selective drug sensitivity score: 2.64
RCH-ACV
  selective drug sensitivity score: 17.5
HPB-ALL
  selective drug sensitivity score: 1.84
KARPAS-45
  selective drug sensitivity score: 1.34
MOLT-4
  selective drug sensitivity score: 3.04
TMD5
  selective drug sensitivity score: -1.66
COG-LL-317
  selective drug sensitivity score: 0.54
COG-LL-402h
  selective drug sensitivity score: 3.44
DND-41
  selective drug sensitivity score: 6.74
HAL-01
  selective drug sensitivity score: 2.54

## Cn1ncc(Cl)c1-c1cc(C(=O)N[C@H](CN)Cc2cccc(F)c2)sc1Cl [Afuresertib] (top concentration 1000 nM)
KASUMI-10
  selective drug sensitivity score: -2.34
REH
  selective drug sensitivity score: 3.56
TANOUE
  selective drug sensitivity score: -1.94
RPMI-8402
  selective drug sensitivity score: 1.16
P12-ICHIKAWA
  selective drug sensitivity score: -0.44
MOLT-14
  selective drug sensitivity score: 0.16
KASUMI-2
  selective drug sensitivity score: 10.2
SUP-B15
  selective drug sensitivity score: 5.66
KASUMI-9
  selective drug sensitivity score: 1.86
KOPN-8
  selective drug sensitivity score: 6.06
CCRF-HSB2
  selective drug sensitivity score: 0.86
RCH-ACV
  selective drug sensitivity score: 5.36
HPB-ALL
  selective drug sensitivity score: 2.86
KARPAS-45
  selective drug sensitivity score: 3.06
MOLT-4
  selective drug sensitivity score: 6.26
TMD5
  selective drug sensitivity score: -2.34
COG-LL-317
  selective drug sensitivity score: 5.26
COG-LL-402h
  selective drug sensitivity score: 4.56
DND-41
  selective drug sensitivity score: -2.34
HAL-01
  selective drug sensitivity score: 3.96
